Common to all, as to assay type: functional
One test deals with HCT-116. The test is described as follows: Antiproliferative activity against human HCT-116 cells assessed as cell growth inhibition measured after 72 hrs by crystal violet staining based assay. The following applies: HCT-116, 72 h.
Test [1] relates to NCI-H460. The test is described as follows: Antiproliferative activity against human NCI-H460 cells assessed as cell growth inhibition measured after 72 hrs by crystal violet staining based assay. Conditions: NCI-H460, 72 h.
Another test has as its system SK-OV-3. Nature of the test: Antiproliferative activity against human SK-OV-3 cells assessed as cell growth inhibition measured after 72 hrs by crystal violet staining based assay. Conditions: SK-OV-3, 72 h.
The subject of test [2] is NCI-H460. The test is described as follows: Induction of apoptosis in human NCI-H460 cells assessed as early apoptotic cells measured after 72 hrs by Annexin V-FITC and propidium iodide staining based flow cytometry analysis (Rvb= 6.61%). (In flow cytometry, cells or beads pass a laser one at a time.)
Test [3] relates to NCI-H460. Nature of the test: Induction of apoptosis in human NCI-H460 cells assessed as late apoptotic cells measured after 72 hrs by Annexin V-FITC and propidium iodide staining based flow cytometry analysis (Rvb= 6.93%).

What is called IC50 is the concentration at which inhibition is half-maximal. `COc1cccc2c1C(=O)c1c(O)c3c(c(O)c1C2=O)C[C@@](O)(C(=O)CO)C[C@@H]3O[C@H]1C[C@H](N)[C@H](O)[C@H](C)O1` [DOXORUBICIN]: the values for the IC50 in the test on HCT-116, in the test with NCI-H460 [1] and in the test on SK-OV-3 were 0.0578 µM, 0.00429 µM and 0.0258 µM, respectively. Also, the Activity in the test with NCI-H460 [2] amounted to 7.16%.

`COc1cc(CNC(=O)CCCC/C=C/C(C)C)ccc1O` [CAPSAICIN]: the figures for the IC50 with HCT-116, in the test with NCI-H460 [1] and in the test with SK-OV-3 were 40.2 µM, 30.7 µM and 22 µM, respectively. Moreover, the Activity with NCI-H460 [2] was determined as 7.17%; in the test with NCI-H460 [3] it was 7.25%.
